{
  "source": "paper PMC7180948",
  "about": "“New Insights into 4-Anilinoquinazolines as Inhibitors of Cardiac Troponin I–Interacting Kinase (TNNi3K)” (Molecules, 2020)",
  "test_in_all_cases": "biochemical",
  "design_in_all_cases": "KINOMEscan competition binding panel (Eurofins DiscoverX), single concentration, percent inhibition",
  "settings_in_all_cases": "read-out: 15 at 1 µM % inhibition",
  "key": {"[1]": {"biological_target": "SBK1 (Homo sapiens, UniProt Q52WX2)", "procedure": "(§1) KinomeScan® Assay on 7 and 15 was performed as previously described by EuroFins DiscoverX [24]. GSK114 (7) and 15 were submitted for a KINOMEscan® assay to explore the selectivity profile across >400 human kinases at a compound concentration of 1 µM. […] GSK114 (7) is a narrow-spectrum TNNi3K inhibitor but has some potent off-targets including GAK which has been previously reported for this chemotype. […] If utilized together this set of compounds could be useful to investigate TNNi3K biology."}, "[2]": {"biological_target": "PKMYT1 (Homo sapiens, UniProt Q99640)", "procedure": "as §1"}, "[3]": {"biological_target": "ROCK1 (Homo sapiens, UniProt Q13464)", "procedure": "as §1"}, "[4]": {"biological_target": "RIOK1 (Homo sapiens, UniProt Q9BRS2)", "procedure": "as §1"}, "[5]": {"biological_target": "CDK7 (Homo sapiens, UniProt P50613)", "sequence (P50613 whole entry)": "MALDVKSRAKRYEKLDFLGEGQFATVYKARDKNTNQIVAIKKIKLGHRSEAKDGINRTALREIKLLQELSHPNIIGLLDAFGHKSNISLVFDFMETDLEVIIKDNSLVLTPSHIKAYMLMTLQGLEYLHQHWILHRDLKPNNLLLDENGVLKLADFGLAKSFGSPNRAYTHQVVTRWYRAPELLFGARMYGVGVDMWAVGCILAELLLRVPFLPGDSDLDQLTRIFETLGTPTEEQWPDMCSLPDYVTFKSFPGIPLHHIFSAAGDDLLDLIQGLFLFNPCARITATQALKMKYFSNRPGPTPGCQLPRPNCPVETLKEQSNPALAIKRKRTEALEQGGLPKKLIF", "procedure": "as §1"}, "[6]": {"biological_target": "FLT3(D835H) (Homo sapiens, UniProt P36888, D835H)", "procedure": "as §1"}, "[7]": {"biological_target": "INSR (Homo sapiens, UniProt P06213)", "sequence (P06213 whole entry)": "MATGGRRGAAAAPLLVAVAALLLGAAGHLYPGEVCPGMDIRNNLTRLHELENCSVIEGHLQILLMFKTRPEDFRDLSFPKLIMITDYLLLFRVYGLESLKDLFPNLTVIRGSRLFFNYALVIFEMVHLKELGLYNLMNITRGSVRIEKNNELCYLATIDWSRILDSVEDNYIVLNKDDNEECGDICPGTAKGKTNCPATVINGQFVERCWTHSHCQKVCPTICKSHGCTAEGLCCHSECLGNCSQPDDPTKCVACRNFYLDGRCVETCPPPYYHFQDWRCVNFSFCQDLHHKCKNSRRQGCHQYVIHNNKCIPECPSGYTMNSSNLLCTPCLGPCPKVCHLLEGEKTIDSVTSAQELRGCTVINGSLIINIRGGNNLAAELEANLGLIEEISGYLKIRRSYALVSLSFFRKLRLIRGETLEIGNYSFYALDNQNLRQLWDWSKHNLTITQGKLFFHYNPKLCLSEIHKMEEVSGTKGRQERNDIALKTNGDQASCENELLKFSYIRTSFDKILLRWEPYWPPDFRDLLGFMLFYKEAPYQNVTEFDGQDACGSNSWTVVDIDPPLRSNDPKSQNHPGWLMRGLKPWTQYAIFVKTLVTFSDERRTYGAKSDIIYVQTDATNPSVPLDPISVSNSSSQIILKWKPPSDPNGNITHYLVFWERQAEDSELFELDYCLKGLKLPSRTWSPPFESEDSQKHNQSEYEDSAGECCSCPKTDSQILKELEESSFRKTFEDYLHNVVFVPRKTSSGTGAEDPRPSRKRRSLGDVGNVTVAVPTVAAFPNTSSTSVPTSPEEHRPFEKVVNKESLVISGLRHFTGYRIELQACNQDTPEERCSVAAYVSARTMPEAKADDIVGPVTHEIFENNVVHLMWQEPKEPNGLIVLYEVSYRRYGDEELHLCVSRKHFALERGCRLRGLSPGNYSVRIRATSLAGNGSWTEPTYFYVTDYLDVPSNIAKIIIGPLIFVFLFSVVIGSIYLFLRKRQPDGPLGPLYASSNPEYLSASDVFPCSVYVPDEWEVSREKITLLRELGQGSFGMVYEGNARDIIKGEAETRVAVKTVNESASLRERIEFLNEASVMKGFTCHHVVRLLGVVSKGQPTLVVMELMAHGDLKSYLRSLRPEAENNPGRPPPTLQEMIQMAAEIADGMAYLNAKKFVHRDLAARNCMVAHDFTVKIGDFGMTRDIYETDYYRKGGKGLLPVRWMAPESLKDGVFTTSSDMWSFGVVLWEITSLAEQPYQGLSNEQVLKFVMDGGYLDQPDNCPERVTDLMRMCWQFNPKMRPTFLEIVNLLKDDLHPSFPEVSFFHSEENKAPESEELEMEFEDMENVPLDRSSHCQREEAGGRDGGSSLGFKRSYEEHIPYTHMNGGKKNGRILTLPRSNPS", "procedure": "as §1"}, "[8]": {"biological_target": "TGFBR2 (Homo sapiens, UniProt P37173)", "procedure": "as §1"}, "[9]": {"biological_target": "T1, p38-alpha (Homo sapiens, UniProt Q16539)", "T1 construct": "gene MAPK14", "procedure": "as §1"}, "[10]": {"biological_target": "DYRK1B (Homo sapiens, UniProt Q9Y463)", "procedure": "as §1"}, "[11]": {"biological_target": "TYRO3 (Homo sapiens, UniProt Q06418)", "procedure": "as §1"}, "[12]": {"biological_target": "T2, ADCK4 (Homo sapiens, UniProt Q96D53)", "T2 construct": "gene COQ8B", "procedure": "as §1"}, "[13]": {"biological_target": "ERN1 (Homo sapiens, UniProt O75460)", "procedure": "as §1"}, "[14]": {"biological_target": "AURKA (Homo sapiens, UniProt O14965)", "procedure": "as §1"}, "[15]": {"biological_target": "PIK3C2G (Homo sapiens, UniProt O75747)", "procedure": "as §1"}, "[16]": {"biological_target": "T3, ABL1(E255K)-phosphorylated (Homo sapiens, UniProt P00519, E255K)", "T3 construct": "phosphorylated", "T3 sequence (P00519 whole entry E255K)": "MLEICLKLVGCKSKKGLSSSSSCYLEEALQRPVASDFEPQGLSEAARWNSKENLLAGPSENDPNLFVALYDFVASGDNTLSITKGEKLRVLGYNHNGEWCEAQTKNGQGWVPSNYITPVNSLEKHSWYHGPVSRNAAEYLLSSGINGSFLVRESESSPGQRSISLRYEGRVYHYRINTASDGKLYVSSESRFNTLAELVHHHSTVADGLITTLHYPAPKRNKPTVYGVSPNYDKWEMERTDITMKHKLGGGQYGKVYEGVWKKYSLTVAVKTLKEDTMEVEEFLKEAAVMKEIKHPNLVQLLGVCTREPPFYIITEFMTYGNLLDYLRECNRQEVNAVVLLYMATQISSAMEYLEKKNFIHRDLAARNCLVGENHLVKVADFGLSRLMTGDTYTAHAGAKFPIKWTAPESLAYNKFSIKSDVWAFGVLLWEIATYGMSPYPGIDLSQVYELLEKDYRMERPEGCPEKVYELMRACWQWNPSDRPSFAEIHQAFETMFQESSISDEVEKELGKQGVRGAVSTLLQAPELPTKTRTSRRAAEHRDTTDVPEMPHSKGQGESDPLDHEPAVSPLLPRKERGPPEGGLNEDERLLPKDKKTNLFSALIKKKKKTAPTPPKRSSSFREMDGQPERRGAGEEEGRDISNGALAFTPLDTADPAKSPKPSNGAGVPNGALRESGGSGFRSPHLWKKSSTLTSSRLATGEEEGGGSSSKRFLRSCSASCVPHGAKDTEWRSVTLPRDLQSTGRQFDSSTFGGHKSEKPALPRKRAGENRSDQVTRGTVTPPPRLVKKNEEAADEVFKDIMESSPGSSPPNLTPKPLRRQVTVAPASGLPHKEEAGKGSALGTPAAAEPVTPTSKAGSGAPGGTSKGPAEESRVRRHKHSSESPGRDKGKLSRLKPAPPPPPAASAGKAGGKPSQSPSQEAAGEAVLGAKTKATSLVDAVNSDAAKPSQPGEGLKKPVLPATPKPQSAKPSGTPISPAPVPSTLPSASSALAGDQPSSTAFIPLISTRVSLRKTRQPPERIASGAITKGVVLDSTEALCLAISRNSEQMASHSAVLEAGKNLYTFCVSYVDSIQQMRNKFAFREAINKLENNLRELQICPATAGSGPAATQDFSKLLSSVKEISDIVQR", "procedure": "as §1"}, "[17]": {"biological_target": "T4, PKAC-alpha (Homo sapiens, UniProt P17612)", "T4 construct": "gene PRKACA", "procedure": "as §1"}, "[18]": {"biological_target": "ERBB3 (Homo sapiens, UniProt P21860)", "procedure": "as §1"}, "[19]": {"biological_target": "IRAK3 (Homo sapiens, UniProt Q9Y616)", "procedure": "as §1"}, "[20]": {"biological_target": "T5, IKK-alpha (Homo sapiens, UniProt O15111)", "T5 construct": "gene CHUK", "procedure": "as §1"}, "[21]": {"biological_target": "TTK (Homo sapiens, UniProt P33981)", "procedure": "as §1"}, "[22]": {"biological_target": "EPHA4 (Homo sapiens, UniProt P54764)", "procedure": "as §1"}, "[23]": {"biological_target": "TEC (Homo sapiens, UniProt P42680)", "procedure": "as §1"}, "[24]": {"biological_target": "WNK4 (Homo sapiens, UniProt Q96J92)", "sequence (Q96J92 whole entry)": "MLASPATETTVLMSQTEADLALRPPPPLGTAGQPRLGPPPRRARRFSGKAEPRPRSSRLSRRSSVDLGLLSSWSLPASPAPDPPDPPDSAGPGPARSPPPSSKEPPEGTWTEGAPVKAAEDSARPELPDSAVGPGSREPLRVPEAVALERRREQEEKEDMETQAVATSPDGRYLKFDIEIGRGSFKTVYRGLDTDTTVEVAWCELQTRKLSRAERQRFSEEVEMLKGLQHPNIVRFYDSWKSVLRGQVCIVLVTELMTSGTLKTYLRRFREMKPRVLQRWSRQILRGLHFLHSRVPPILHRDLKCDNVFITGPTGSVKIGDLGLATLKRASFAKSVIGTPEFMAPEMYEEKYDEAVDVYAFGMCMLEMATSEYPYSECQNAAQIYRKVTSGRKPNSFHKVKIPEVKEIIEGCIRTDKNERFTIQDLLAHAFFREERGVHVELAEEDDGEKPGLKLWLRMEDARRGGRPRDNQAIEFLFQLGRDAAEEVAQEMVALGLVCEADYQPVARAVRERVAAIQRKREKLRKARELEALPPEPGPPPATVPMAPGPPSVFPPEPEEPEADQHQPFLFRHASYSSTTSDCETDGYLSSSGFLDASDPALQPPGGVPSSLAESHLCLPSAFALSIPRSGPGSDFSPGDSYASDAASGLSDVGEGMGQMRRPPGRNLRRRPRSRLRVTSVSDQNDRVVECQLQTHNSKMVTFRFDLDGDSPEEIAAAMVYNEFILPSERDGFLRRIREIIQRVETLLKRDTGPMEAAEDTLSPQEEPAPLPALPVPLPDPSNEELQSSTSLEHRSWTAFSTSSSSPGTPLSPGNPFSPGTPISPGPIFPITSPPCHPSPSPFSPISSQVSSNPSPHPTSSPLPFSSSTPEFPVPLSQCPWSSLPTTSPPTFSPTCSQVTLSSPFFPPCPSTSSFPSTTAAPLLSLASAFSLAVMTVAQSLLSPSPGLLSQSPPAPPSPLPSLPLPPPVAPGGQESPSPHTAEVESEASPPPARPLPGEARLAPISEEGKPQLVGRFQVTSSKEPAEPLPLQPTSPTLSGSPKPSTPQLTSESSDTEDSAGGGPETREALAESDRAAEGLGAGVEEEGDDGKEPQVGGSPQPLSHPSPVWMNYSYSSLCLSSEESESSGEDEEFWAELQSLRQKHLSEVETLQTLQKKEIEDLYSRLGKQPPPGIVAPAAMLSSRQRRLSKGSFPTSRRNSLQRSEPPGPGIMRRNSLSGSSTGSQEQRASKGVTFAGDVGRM", "procedure": "as §1"}, "[25]": {"biological_target": "MAP4K3 (Homo sapiens, UniProt Q8IVH8)", "sequence (Q8IVH8 whole entry)": "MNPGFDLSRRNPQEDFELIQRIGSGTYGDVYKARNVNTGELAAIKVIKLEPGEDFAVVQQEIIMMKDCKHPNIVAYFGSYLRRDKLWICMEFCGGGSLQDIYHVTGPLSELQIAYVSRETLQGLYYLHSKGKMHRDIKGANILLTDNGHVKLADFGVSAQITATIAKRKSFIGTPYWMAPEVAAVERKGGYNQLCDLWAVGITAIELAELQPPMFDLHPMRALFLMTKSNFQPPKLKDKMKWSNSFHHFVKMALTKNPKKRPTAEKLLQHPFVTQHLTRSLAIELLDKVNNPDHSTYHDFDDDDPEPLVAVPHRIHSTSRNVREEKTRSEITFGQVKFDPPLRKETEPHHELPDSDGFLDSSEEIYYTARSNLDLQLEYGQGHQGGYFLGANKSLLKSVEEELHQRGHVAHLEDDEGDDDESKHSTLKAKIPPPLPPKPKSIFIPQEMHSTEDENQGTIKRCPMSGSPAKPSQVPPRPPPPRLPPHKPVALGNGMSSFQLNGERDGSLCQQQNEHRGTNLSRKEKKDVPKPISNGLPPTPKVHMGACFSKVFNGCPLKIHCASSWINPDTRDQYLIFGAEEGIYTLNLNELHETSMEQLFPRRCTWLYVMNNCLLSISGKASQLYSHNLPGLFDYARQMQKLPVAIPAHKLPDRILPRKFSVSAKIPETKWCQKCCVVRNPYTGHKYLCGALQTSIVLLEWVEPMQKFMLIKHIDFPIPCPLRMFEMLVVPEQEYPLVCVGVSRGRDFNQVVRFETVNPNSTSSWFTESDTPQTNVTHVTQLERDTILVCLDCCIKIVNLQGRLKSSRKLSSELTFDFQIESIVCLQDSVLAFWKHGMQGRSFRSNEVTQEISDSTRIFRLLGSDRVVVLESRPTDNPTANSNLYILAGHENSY", "procedure": "as §1"}},
  "data": [
    {"smiles": "CNS(=O)(=O)c1ccc(N(C)C)c(Nc2nc(C)nc3cc(OC)c(OC)cc23)c1", "note": "[compound 15, 3-((6,7-dimethoxy-2-methylquinazolin-4-yl)amino)-4-(dimethylamino)-N-methylbenzenesulfonamide]", "values": [
      {"measurement": "inhibition at 1 µM", "setting": "[1]", "value": 44, "unit": "%"},
      {"measurement": "inhibition at 1 µM", "setting": "[2]", "value": 0, "unit": "%"},
      {"measurement": "inhibition at 1 µM", "setting": "[3]", "value": 34, "unit": "%"},
      {"measurement": "inhibition at 1 µM", "setting": "[4]", "value": 0, "unit": "%"},
      {"measurement": "inhibition at 1 µM", "setting": "[5]", "value": 18, "unit": "%"},
      {"measurement": "inhibition at 1 µM", "setting": "[6]", "value": 10, "unit": "%"},
      {"measurement": "inhibition at 1 µM", "setting": "[7]", "value": 11, "unit": "%"},
      {"measurement": "inhibition at 1 µM", "setting": "[8]", "value": 8, "unit": "%"},
      {"measurement": "inhibition at 1 µM", "setting": "[9]", "value": 0, "unit": "%"},
      {"measurement": "inhibition at 1 µM", "setting": "[10]", "value": 17, "unit": "%"},
      {"measurement": "inhibition at 1 µM", "setting": "[11]", "value": 0, "unit": "%"},
      {"measurement": "inhibition at 1 µM", "setting": "[12]", "value": 0, "unit": "%"},
      {"measurement": "inhibition at 1 µM", "setting": "[13]", "value": 3, "unit": "%"},
      {"measurement": "inhibition at 1 µM", "setting": "[14]", "value": 14, "unit": "%"},
      {"measurement": "inhibition at 1 µM", "setting": "[15]", "value": 22, "unit": "%"},
      {"measurement": "inhibition at 1 µM", "setting": "[16]", "value": 4, "unit": "%"},
      {"measurement": "inhibition at 1 µM", "setting": "[17]", "value": 0, "unit": "%"},
      {"measurement": "inhibition at 1 µM", "setting": "[18]", "value": 16, "unit": "%"},
      {"measurement": "inhibition at 1 µM", "setting": "[19]", "value": 3, "unit": "%"},
      {"measurement": "inhibition at 1 µM", "setting": "[20]", "value": 33, "unit": "%"},
      {"measurement": "inhibition at 1 µM", "setting": "[21]", "value": 2, "unit": "%"},
      {"measurement": "inhibition at 1 µM", "setting": "[22]", "value": 0, "unit": "%"},
      {"measurement": "inhibition at 1 µM", "setting": "[23]", "value": 13, "unit": "%"},
      {"measurement": "inhibition at 1 µM", "setting": "[24]", "value": 0, "unit": "%"},
      {"measurement": "inhibition at 1 µM", "setting": "[25]", "value": 0, "unit": "%"}
    ]}
  ]
}
